# Data taken from patent publication US9993562B2, “Metallic gold cluster molecules as therapeutic agents for arthritic animals” (priority 2016, dated 2018).
# No end group written: not given here.
# Tests used:
# Type in all cases: in vivo, DBA/1 male mice
# [1] = test system: Collagen induced arthritis in mice; assay: Visual inflammation scoring of paws (0-4 per limb, four limbs summed), collagen induced arthritis
# Source text: Collagen induced arthritis in mice has been the standard animal model for studying rheumatoid arthritis and other polyarthritis. DBA/1 male mice weighted 20-22 grams were purchased from Hua-Fu-Kang Biotechnology Limited, Beijing, China. Type II collagen and Complete Freund's Adjuvant were purchased from Chondrex Inc., Redmond, Wash., USA. Auranofin was purchased from Sigma, USA and Dexamethasone was purchased from Jin-Yao Amino Acid Company, Tianjing, China. Gold25(peptide)9 cluster molecules were prepared according to Example 1.
# (§1) Type II collagen was dissolved in 0.1 mM acetic acid solution and was emulsified with equal volume of Complete Freund's Adjuvant to make a 1.0 mg/ml Type II collagen emulsion. After one week of resting and environment adjustment, DBA/1 male mice were divided into groups, each group was consisted of 10 mice. Each animal was injected intradermally at the 2-3 cm base of the tail an emulsion of 100 μg Type II collagen. On day 21, a second booster dose of 100 μg Type II collagen emulsion was injected. Negative control group of mice are injected with equal amount of 0.9% Sodium Chloride solution.
# (§2) On day 22, groups of mice were given different drugs once each day for 28 days (4 weeks) until day 49 (end of week 7). The groups of mice were examined for inflammation and status.
# The inflammation was assessed by means of a visual scoring method where mouse individual paws were graded from 0-4 as follows:
# 0 score: no redness and no swelling;
# 1 score: mild erythema at the toes;
# 2 scores: toe joints and paw swelling;
# 3 scores: swelling below ankle
# 4 scores: all ankle and paw swelling. • All four limbs of each mouse were examined and scored, and scores of all four limbs were added together for each mouse.
# [2] = Effect of treatment on body weight of type II collagen immunized mice; conditions: mean ± sd
# Protocol: DBA/1 male mice weighted 20-22 grams were purchased from Hua-Fu-Kang Biotechnology Limited, Beijing, China. Type II collagen and Complete Freund's Adjuvant were purchased from Chondrex Inc., Redmond, Wash., USA. […] Gold25(peptide)9 cluster molecules were prepared according to Example 1.
# as §1, §2
# [3] = test system: IL-6; assay: Amount of IL-6 at the arthritic joints (FIG. 10)
# Protocol: as §2
# (§3) In reference to FIGS. 10 and 11, the amount of pro-inflammation cytokine factors IL-6 and IL-1β were measured at the arthritic joints of the variously treated mice groups.
# [4] = test system: Collagen induced arthritis in mice; assay: Pictures of hind limb swelling (FIG. 6), collagen induced arthritis; conditions: end of 7 weeks of the experiment
# Protocol: as §1, §2
# [5] = test system: Collagen induced arthritis in mice; assay: 3D CT scan of paw joints, bone density changes (FIG. 7); conditions: end of week 7
# Protocol: as §1, §2
# [6] = test system: Collagen induced arthritis in mice; assay: Hematoxylin and eosin histology of hind limb joint sections (FIG. 8); conditions: H&E
# Protocol: as §1, §2
# To evaluate the soft tissue damages around the joint area, the joint tissues of the hind limbs of each mouse groups were then fixed, embedded, sectioned into slides and hematoxylin and eosin stained to examine the histology and histopathology changes at the joints.
# [7] = test system: IL-1β; assay: Amount of IL-1β at the arthritic joints (FIG. 11)
# Protocol: as §2, §3
# [8] = test system: TNF; assay: Amount of TNF at the arthritic joints
# Protocol: as §2
# In reference to […], the amount of pro-inflammation cytokine TNF was measured at the arthritic joints of the variously treated mice groups. […] The observed significant differences in effectiveness between orally administering and intraperitoneally administering methods may result from the fact that the amount of gold can be more and directly up-taken through phagocytosis by the macrophage cells peritoneum. This effect is also largely consistent with the prior observation that gold25(peptide)9 cluster molecules are capable of induce apoptosis in various cells, and its binding ability of cysteine-rich pro-inflammation cytokines helps with its anti-inflammation effect.
molecule,measurement,setting,value
"C[C@@H]1C[C@H]2[C@@H]3CCC4=CC(=O)C=C[C@]4(C)[C@@]3(F)[C@@H](O)C[C@]2(C)[C@@]1(O)C(=O)CO [DEX, Dexamethasone, reference compound]","Inflammation visual score (sum of four limbs, each 0-4)","[1]; 35 d, i.g. 0.5 mg/kg once daily from day 22",0.22 ± 0.44
same,"Inflammation visual score (sum of four limbs, each 0-4)","[1]; 38 d, i.g. 0.5 mg/kg once daily from day 22",0.33 ± 0.71
same,"Inflammation visual score (sum of four limbs, each 0-4)","[1]; 42 d, i.g. 0.5 mg/kg once daily from day 22",1.22 ± 1.30
same,"Inflammation visual score (sum of four limbs, each 0-4)","[1]; 45 d, i.g. 0.5 mg/kg once daily from day 22",1.33 ± 1.00
same,"Inflammation visual score (sum of four limbs, each 0-4)","[1]; 49 d, i.g. 0.5 mg/kg once daily from day 22",1.22 ± 0.97
same,Mice Body Weight,"[2]; 2 wk (before dosing), group i.g. 0.5 mg/kg",23.20 ± 1.06 g
same,Mice Body Weight,"[2]; 3 wk (before dosing), group i.g. 0.5 mg/kg",23.50 ± 1.02 g
Au25 (peptide)9: metallic 25 gold atom cluster binding 9 peptides of SEQ ID NO: 1 Cys-Cys-Tyr-Gly-Gly-Pro-Lys-Lys-Lys-Arg-Lys-Pro-Gly (CCYGGPKKKRKPG; cysteine pairing not given here; also: 9 peptides bound to Au25 gold cluster),"Inflammation visual score (sum of four limbs, each 0-4)","[1]; 35 d, i.g. 50 mg/kg once daily from day 22",6.13 ± 3.09
same,"Inflammation visual score (sum of four limbs, each 0-4)","[1]; 35 d, i.p. 5 mg/kg once daily from day 22",8.00 ± 2.78
same,"Inflammation visual score (sum of four limbs, each 0-4)","[1]; 38 d, i.g. 50 mg/kg once daily from day 22",7.00 ± 3.07
same,"Inflammation visual score (sum of four limbs, each 0-4)","[1]; 38 d, i.p. 5 mg/kg once daily from day 22",7.77 ± 4.49
same,"Inflammation visual score (sum of four limbs, each 0-4)","[1]; 42 d, i.g. 50 mg/kg once daily from day 22",8.88 ± 3.04
same,"Inflammation visual score (sum of four limbs, each 0-4)","[1]; 42 d, i.p. 5 mg/kg once daily from day 22",7.00 ± 3.20
same,"Inflammation visual score (sum of four limbs, each 0-4)","[1]; 45 d, i.g. 50 mg/kg once daily from day 22",8.88 ± 3.52
same,"Inflammation visual score (sum of four limbs, each 0-4)","[1]; 45 d, i.p. 5 mg/kg once daily from day 22",6.38 ± 2.33
same,"Inflammation visual score (sum of four limbs, each 0-4)","[1]; 49 d, i.g. 50 mg/kg once daily from day 22",9.13 ± 0.48
same,"Inflammation visual score (sum of four limbs, each 0-4)","[1]; 49 d, i.p. 5 mg/kg once daily from day 22",5.88 ± 3.40
same,Swelling and joint deformity (in words),"[1]; i.p. 5 mg/kg body weight, 3′ week of treatment",significantly improved
same,Swelling scores (in words),"[1]; oral 50 mg/kg body weight, by the end of 4 weeks of treatment","better scores than Auranofin, but still developed comparable inflammation"
same,Amount of IL-6 at the arthritic joints,"[3]; group 4, oral 50 mg/kg daily",reduced these two cytokines to the similar level as that of Dex
same,Amount of IL-6 at the arthritic joints,"[3]; group 5, i.p. 5 mg/kg daily",reduced these two cytokines to the similar level as that of Dex
same,Hind limb swelling in pictures (FIG. 6),[4]; i.p. 5 mg/kg daily,obvious reduced swelling and improvement in deformation
same,Hind limb swelling in pictures (FIG. 6),[4]; oral 50 mg/kg daily,still obvious swelling and slightly better condition
same,Mice Body Weight,"[2]; 0 w (before dosing, which starts day 22), group i.g. 50 mg/kg",21.60 ± 1.31 g
same,Mice Body Weight,"[2]; 0 w (before dosing, which starts day 22), group i.p. 5 mg/kg",22 ± 1.27 g
same,Mice Body Weight,"[2]; 1 wk (before dosing), group i.g. 50 mg/kg",23.05 ± 1.04 g
same,Mice Body Weight,"[2]; 1 wk (before dosing), group i.p. 5 mg/kg",23.25 ± 1.21 g
same,Mice Body Weight,"[2]; 2 wk (before dosing), group i.g. 50 mg/kg",23.40 ± 1.33 g
same,Mice Body Weight,"[2]; 2 wk (before dosing), group i.p. 5 mg/kg",24.13 ± 0.99 g
same,Mice Body Weight,"[2]; 3 wk (before dosing), group i.g. 50 mg/kg",24.10 ± 1.50 g
same,Mice Body Weight,"[2]; 3 wk (before dosing), group i.p. 5 mg/kg",24.00 ± 0.85 g
same,Mice Body Weight,"[2]; 4 wk, i.g. 50 mg/kg once daily from day 22",22.66 ± 1.64 g
same,Mice Body Weight,"[2]; 4 wk, i.p. 5 mg/kg once daily from day 22",23.30 ± 0.84 g
same,Mice Body Weight,"[2]; 5 wk, i.g. 50 mg/kg once daily from day 22",22.35 ± 1.73 g
same,Mice Body Weight,"[2]; 5 wk, i.p. 5 mg/kg once daily from day 22",23.01 ± 0.70 g
same,Mice Body Weight,"[2]; 6 wk, i.g. 50 mg/kg once daily from day 22",23.23 ± 1.71 g
same,Mice Body Weight,"[2]; 6 wk, i.p. 5 mg/kg once daily from day 22",22.63 ± 1.71 g
same,Mice Body Weight,"[2]; 7 wk, i.g. 50 mg/kg once daily from day 22",23.43 ± 1.47 g
same,Mice Body Weight,"[2]; 7 wk, i.p. 5 mg/kg once daily from day 22",22.47 ± 1.43 g
same,"Bone density, deformation and osteolysis of paw joints, 3D CT",[5]; i.p. 5 mg/kg daily,"significant improvement on the bone density comparing the non-treated arthritis mice, and no obvious osteolysis and only slight bone deformation"
same,"Bone deformation and osteolysis of paw joints, 3D CT",[5]; oral 50 mg/kg daily,still developed bone deformation and osteolysis
same,"Joint histopathology (bone erosion, soft tissue damage, synovial macrophage infiltration)",[6]; i.p. 5 mg/kg daily,the bone erosion is significantly less and no apparent number of synovial macrophage cells infiltration
same,"Joint histopathology (bone erosion, soft tissue damage, synovial macrophage infiltration)",[6]; oral 50 mg/kg daily,reduced soft tissue damages and less macrophage infiltration
same,Amount of IL-1β at the arthritic joints,"[7]; group 4, oral 50 mg/kg daily",reduced these two cytokines to the similar level as that of Dex
same,Amount of IL-1β at the arthritic joints,"[7]; group 5, i.p. 5 mg/kg daily",reduced these two cytokines to the similar level as that of Dex
same,Amount of TNF at the arthritic joints,"[8]; group 4, oral 50 mg/kg daily",also reduced the amount of TNF
same,Amount of TNF at the arthritic joints,"[8]; group 5, i.p. 5 mg/kg daily",dramatically reduced the TNF generation
